pKi: −log10 of the molar value.

One experiment deals with Neuronal acetylcholine receptor; alpha4/beta2 (Rattus norvegicus, UniProt P09483+P12390). Briefly: Displacement of [3H]epibatidine from alpha-4-beta-2 nAchR in rat brain cortex membrane. The experiment is classed as cell membranes. A general note: Displacement assays read how much labelled ligand stays bound in the presence of the test substance.
Sequence of Neuronal acetylcholine receptor; alpha4/beta2 (P09483 whole entry): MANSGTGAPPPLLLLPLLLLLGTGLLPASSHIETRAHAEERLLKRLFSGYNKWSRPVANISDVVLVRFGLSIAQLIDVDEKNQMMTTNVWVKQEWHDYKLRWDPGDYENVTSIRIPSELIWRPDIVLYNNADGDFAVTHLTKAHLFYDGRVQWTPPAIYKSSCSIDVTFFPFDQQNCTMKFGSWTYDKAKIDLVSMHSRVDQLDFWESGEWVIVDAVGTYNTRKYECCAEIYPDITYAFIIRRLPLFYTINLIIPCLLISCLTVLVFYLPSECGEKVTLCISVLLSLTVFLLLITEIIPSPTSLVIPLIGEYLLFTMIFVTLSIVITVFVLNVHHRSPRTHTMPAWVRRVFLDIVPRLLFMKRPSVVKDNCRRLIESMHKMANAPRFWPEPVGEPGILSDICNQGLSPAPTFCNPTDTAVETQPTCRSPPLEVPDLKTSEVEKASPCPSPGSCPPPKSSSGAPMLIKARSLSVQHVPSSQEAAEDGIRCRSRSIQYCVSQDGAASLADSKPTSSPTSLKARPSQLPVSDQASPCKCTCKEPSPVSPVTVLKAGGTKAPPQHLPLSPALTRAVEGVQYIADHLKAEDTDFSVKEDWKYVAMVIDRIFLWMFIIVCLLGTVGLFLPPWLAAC
Sequence of Neuronal acetylcholine receptor; alpha4/beta2 (P12390 whole entry): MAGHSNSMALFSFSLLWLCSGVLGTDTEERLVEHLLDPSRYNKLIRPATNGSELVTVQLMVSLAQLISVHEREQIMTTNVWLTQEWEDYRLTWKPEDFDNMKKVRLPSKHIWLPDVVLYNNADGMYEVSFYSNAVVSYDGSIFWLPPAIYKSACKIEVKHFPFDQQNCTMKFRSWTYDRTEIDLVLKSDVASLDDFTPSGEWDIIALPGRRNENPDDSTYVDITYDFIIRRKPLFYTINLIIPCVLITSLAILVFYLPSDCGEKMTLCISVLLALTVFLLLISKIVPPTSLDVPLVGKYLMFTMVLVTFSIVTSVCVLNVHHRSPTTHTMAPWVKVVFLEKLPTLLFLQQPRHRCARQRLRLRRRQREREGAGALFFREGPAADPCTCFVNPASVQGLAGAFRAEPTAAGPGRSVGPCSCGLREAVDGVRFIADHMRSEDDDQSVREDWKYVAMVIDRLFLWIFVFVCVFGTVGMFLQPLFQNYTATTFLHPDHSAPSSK
For the compound `CN1CCC[C@H]1[C@H]1CNC(=O)O1`, the pKi is 4.46.

`CN1CCC[C@@H]1[C@@H]1CNC(=O)O1`: the pKi is 4.43.

The compound `CN1CCC[C@H]1[C@H]1COc2ccccc2O1.Cl` had a pKi of 6.33.

In turn, `CN1CCC[C@@H]1[C@@H]1COc2ccccc2O1.Cl` had a pKi of 4.36.

For the compound `Cl.c1ccc2c(c1)OC[C@@H]([C@H]1CCCN1)O2`, the pKi is 4.94.

As to `CN1CCC[C@@H]1[C@H]1CNC(=O)O1`, the pKi was 4.40.

`Cl.c1ccc2c(c1)OC[C@H]([C@H]1CCCN1)O2` gave a pKi of 4.06.

For `CN1CCC[C@H]1[C@@H]1COc2ccccc2O1`, the pKi is 6.59.

Regarding `CN1CCC[C@@H]1[C@H]1COc2ccccc2O1`, the pKi was 4.90.

The compound `Cl.c1ccc2c(c1)OC[C@H]([C@@H]1CCCN1)O2` showed a pKi of 4.84.

The compound `CN1CCC[C@H]1[C@@H]1CNC(=O)O1` gave a pKi of 5.57.

Turning to `Cl.c1ccc2c(c1)OC[C@@H]([C@@H]1CCCN1)O2`, the pKi was 5.68.

The target in another experiment is Neuronal acetylcholine receptor subunit alpha-7 (Rattus norvegicus, UniProt Q05941). The experiment can be described thus: Displacement of [125I]alpha-Bungarotoxin from alpha-7 nAchR in rat brain cortex membrane. The experiment is classed as cell membranes.
Sequence of Neuronal acetylcholine receptor subunit alpha-7 (Q05941 whole entry): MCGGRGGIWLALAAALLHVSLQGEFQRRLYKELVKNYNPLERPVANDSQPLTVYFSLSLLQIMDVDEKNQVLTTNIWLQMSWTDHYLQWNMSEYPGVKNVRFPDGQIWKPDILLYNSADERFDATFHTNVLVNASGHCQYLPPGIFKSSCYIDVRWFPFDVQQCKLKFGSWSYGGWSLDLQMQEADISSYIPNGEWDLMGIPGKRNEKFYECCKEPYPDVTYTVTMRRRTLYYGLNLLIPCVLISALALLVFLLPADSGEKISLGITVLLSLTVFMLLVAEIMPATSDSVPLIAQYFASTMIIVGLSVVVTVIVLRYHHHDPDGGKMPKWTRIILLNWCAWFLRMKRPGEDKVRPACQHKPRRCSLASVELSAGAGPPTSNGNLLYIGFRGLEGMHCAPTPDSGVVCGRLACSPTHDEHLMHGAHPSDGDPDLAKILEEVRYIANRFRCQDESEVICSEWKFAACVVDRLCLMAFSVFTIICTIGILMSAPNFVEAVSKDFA
`CN1CCC[C@H]1[C@H]1CNC(=O)O1` showed a pKi of 4.00.

In the case of `CN1CCC[C@@H]1[C@@H]1CNC(=O)O1`, the pKi is 4.37.

`CN1CCC[C@H]1[C@H]1COc2ccccc2O1.Cl` had a pKi of 4.84.

Compound `CN1CCC[C@@H]1[C@@H]1COc2ccccc2O1.Cl` gave a pKi of 4.83.

Compound `Cl.c1ccc2c(c1)OC[C@@H]([C@H]1CCCN1)O2` had a pKi of 4.57.

As for `CN1CCC[C@@H]1[C@H]1CNC(=O)O1`, the pKi was 4.00.

Consider `Cl.c1ccc2c(c1)OC[C@H]([C@H]1CCCN1)O2`, for which the pKi is 4.83.

`CN1CCC[C@H]1[C@@H]1COc2ccccc2O1` gave a pKi of 4.68.

The compound `CN1CCC[C@@H]1[C@H]1COc2ccccc2O1` showed a pKi of 4.46.

Regarding `Cl.c1ccc2c(c1)OC[C@H]([C@@H]1CCCN1)O2`, the pKi is 4.49.

The compound `CN1CCC[C@H]1[C@@H]1CNC(=O)O1` showed a pKi of 4.68.

Consider `Cl.c1ccc2c(c1)OC[C@@H]([C@@H]1CCCN1)O2`, for which the pKi is 4.44.

A further experiment has as its target T1, Adrenergic receptor alpha-2 (Rattus norvegicus, UniProt P22086+P19328+P22909).
T1 sequence (P22086 whole entry): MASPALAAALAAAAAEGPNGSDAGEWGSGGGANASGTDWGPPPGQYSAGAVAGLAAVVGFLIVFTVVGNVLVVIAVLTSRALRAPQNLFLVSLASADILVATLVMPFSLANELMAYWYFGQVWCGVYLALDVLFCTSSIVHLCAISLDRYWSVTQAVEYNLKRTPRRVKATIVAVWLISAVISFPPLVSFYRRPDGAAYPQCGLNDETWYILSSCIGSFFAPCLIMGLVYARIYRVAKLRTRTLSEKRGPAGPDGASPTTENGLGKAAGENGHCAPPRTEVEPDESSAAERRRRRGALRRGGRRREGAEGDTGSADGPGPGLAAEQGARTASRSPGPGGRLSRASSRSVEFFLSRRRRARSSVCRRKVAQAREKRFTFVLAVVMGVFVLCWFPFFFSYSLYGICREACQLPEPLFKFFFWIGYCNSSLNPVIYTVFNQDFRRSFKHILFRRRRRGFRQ
T1 sequence (P19328 whole entry): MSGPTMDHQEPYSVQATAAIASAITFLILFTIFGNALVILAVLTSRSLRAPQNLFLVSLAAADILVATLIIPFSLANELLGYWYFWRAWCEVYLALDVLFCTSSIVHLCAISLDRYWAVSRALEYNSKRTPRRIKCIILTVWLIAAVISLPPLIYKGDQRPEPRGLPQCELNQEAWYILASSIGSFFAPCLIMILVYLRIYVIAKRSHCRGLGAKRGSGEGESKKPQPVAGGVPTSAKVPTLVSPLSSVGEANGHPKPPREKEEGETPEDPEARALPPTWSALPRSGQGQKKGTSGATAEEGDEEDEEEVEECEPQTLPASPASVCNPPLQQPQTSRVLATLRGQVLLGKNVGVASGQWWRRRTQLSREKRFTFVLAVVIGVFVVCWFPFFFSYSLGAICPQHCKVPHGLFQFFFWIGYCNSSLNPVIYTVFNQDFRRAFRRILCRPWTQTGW
T1 sequence (P22909 whole entry): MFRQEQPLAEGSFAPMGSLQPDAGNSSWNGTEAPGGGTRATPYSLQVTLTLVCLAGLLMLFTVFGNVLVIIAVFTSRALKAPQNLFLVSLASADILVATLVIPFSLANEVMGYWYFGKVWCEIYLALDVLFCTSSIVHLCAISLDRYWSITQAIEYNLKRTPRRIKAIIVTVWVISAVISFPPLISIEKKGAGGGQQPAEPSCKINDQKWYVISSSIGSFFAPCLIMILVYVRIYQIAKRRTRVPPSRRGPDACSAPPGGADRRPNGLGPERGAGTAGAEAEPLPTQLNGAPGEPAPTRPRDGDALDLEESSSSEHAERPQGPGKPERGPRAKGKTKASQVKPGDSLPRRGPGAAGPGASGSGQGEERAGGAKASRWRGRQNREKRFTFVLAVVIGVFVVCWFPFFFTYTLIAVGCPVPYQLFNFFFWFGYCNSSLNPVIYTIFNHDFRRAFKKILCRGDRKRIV
Briefly: Displacement of [3H]RS 79948-197 from alpha-2 adrenergic receptor in rat brain cortex membrane. The experiment is classed as cell membranes.
As for `CN1CCC[C@H]1[C@H]1COc2ccccc2O1.Cl`, the Ki was determined as 1.67 µM.

As to `CN1CCC[C@@H]1[C@@H]1COc2ccccc2O1.Cl`, the Ki came to 6.67 µM.

As for `Cl.c1ccc2c(c1)OC[C@@H]([C@H]1CCCN1)O2`, the Ki stood at 6.33 µM.

`Cl.c1ccc2c(c1)OC[C@H]([C@H]1CCCN1)O2` showed a Ki of 14 µM.

`Cl.c1ccc2c(c1)OC[C@H]([C@@H]1CCCN1)O2`: the Ki was 0.64 µM.

As for `Cl.c1ccc2c(c1)OC[C@@H]([C@@H]1CCCN1)O2`, the Ki was found to be 1.35 µM.

The term pKi denotes −log10 of the Ki, conventionally taken in molar units. High values mean a small Ki, low ones a large Ki. By Ki is commonly meant a measure of affinity in units of concentration, obtained from inhibition or displacement. A low value points to tighter binding.
